One assay has as its target T1, human A1 receptors (Homo sapiens, UniProt P30542).
T1 construct: expressed in transfected cells; host or cells: CHO
T1 sequence (P30542 1-326): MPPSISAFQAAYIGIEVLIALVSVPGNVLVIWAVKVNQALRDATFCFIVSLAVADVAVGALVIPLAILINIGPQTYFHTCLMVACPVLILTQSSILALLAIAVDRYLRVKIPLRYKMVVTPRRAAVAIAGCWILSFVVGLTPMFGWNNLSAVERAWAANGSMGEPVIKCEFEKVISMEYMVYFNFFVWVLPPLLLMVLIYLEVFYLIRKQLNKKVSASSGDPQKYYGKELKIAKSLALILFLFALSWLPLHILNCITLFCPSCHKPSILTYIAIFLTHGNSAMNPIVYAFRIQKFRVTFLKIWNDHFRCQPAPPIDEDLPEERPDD
Briefly: Binding at human A1 receptor, CHO membranes (Example 4). Particulars: read-out: Affinity (Ki nM) A1.

In assay [1] the target is T2, hA3AR (Homo sapiens, UniProt P0DMS8).
T2 construct: expressed in transfected cells; host or cells: CHO
T2 sequence (P0DMS8 1-318): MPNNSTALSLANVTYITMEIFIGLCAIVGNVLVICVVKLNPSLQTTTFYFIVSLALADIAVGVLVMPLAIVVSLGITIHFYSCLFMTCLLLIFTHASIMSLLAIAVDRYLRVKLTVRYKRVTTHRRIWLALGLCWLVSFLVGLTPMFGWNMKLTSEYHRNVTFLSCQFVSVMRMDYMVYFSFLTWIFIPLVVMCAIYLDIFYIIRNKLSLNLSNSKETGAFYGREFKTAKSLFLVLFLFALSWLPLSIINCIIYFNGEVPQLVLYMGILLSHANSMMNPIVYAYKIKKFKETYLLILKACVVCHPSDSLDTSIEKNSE
The settings on record: at 10 μM vs maximal effect of 51 (= 100%); values from the literature; cited from earlier work.

In another assay the target is T3, hA2AAR (Homo sapiens, UniProt P29274).
T3 construct: expressed in transfected cells
T3 sequence (P29274 whole entry): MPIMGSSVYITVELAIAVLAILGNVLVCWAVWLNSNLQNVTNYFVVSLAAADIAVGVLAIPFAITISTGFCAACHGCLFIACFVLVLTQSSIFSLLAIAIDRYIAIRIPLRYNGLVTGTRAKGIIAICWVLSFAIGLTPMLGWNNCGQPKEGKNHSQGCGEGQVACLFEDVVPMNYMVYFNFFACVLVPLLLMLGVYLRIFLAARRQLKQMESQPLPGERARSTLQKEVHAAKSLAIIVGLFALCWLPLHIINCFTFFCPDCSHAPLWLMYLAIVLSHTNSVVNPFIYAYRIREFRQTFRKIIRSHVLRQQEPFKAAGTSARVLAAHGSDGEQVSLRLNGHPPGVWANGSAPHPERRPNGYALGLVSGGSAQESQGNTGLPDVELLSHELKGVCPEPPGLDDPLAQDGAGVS
The settings on record: values from the literature (footnotes c, d); read-out: Affinity (Ki, nM) hA2A; cited from earlier work.

The next assay concerns the target T4, hA1AR (Homo sapiens, UniProt P30542).
T4 construct: expressed in transfected cells; host or cells: CHO
T4 sequence (P30542 1-326): T1 sequence (P30542 1-326)
The settings on record: values from the literature (footnotes c, d); read-out: Affinity (Ki, nM) hA1; cited from earlier work.

In assay [2] the target is T2, hA3AR. Particulars: values from the literature (footnotes c, d); read-out: Affinity (Ki, nM) hA3; cited from earlier work.
Assay [3] concerns the target T5, human A2A adenosine receptor (Homo sapiens, UniProt P29274). Briefly: Radioligand binding, human A2A AR (Table 1). Particulars: read-out: A2A Ki; species H (human).
The target in a further assay is T6, human A3AR (Homo sapiens, UniProt P0DMS8).
T6 construct: expressed in transfected cells; host or cells: CHO
T6 sequence (P0DMS8 1-318): T2 sequence (P0DMS8 1-318)
The assay is described as follows: Inhibition of forskolin-stimulated cyclic AMP production in AR transfected CHO cells (Table 1). The assay is classed as cell-based. The settings on record: at 10 μM, in comparison to maximal effect of full agonist 5′-N-ethylcarboxamidoadenosine at 100%.

Assay [4] deals with T7, human A3 adenosine receptor (Homo sapiens, UniProt P0DMS8).
T7 sequence (P0DMS8 1-318): T2 sequence (P0DMS8 1-318)
The assay is described as follows: [125I]I-AB-MECA binding, human A3 AR, CHO membranes (Table 1).

Assay [5] deals with T8, human A1 adenosine receptor (Homo sapiens, UniProt P30542).
T8 sequence (P30542 1-326): T1 sequence (P30542 1-326)
The assay is described as follows: Radioligand binding, human A1 AR, CHO membranes (Table 1). The settings on record: read-out: A1 Ki; species H (human).

Assay [6] concerns the target T9, mouse A1 adenosine receptor (Mus musculus, UniProt Q60612).
T9 sequence (Q60612 1-326): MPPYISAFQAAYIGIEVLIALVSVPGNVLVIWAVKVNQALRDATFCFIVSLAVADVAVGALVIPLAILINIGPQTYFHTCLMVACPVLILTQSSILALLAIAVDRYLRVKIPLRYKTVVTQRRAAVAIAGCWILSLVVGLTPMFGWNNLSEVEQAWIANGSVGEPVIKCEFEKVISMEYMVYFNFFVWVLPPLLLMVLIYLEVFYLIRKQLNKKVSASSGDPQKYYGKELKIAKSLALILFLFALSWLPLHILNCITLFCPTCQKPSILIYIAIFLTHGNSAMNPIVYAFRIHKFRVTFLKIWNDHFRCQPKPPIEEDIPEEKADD
Briefly: Competition radioligand binding, mouse A1 AR, HEK293 membranes (Table 1). Particulars: read-out: A1 Ki; species M (mouse); [125I]I-AB-MECA; mean ± SEM.

Assay [7] concerns the target mouse A2A adenosine receptor (Mus musculus, UniProt Q60613). Briefly: Competition radioligand binding, mouse A2A AR, HEK293 membranes (Table 1). Particulars: read-out: A2A Ki; species M (mouse); [3H]CGS21680.
Assay [8] addresses T5, human A2A adenosine receptor. Also on record: expressed in transfected cells. Particulars: species H (human); data from Tchilibon et al. or Kim et al.; cited from earlier work.
Assay [9] has as its target T10, rat A3 AR (Rattus norvegicus, UniProt P28647).
T10 sequence (P28647 1-320): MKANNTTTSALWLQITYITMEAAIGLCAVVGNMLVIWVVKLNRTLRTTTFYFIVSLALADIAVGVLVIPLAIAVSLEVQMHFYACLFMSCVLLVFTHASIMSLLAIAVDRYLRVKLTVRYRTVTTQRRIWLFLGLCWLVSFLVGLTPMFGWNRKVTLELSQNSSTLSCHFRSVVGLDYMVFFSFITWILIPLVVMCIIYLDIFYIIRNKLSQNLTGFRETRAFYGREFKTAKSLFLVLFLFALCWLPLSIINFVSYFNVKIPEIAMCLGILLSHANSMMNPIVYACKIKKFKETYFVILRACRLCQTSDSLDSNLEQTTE
Briefly: Radioligand binding, rat A3 AR (Table 1). The settings on record: species R (rat).

In assay [10] the target is T11, mouse A3 adenosine receptor (Mus musculus, UniProt Q61618).
T11 sequence (Q61618 1-319): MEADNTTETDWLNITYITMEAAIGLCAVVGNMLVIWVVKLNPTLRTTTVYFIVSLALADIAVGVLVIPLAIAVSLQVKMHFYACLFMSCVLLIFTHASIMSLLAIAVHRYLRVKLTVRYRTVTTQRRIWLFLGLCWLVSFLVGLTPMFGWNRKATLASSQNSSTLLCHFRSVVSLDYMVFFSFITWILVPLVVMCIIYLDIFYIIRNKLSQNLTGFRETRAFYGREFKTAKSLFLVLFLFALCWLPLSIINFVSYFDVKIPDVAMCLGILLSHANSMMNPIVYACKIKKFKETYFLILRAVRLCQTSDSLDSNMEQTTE
Briefly: Competition radioligand binding, mouse A3 AR, HEK293 membranes (Table 1). The settings on record: for Selectivity A1/A3: mouse; for Ki: read-out: A3 Ki, species M (mouse), [125I]I-AB-MECA.

Assay [11] has as its target T8, human A1 adenosine receptor. Also on record: expressed in transfected cells; host or cells: CHO. The settings on record: species H (human); data from Tchilibon et al. or Kim et al.; cited from earlier work.
The target of another assay is T12, mA1AR (Mus musculus, UniProt Q60612).
T12 construct: expressed in transfected cells
T12 sequence (Q60612 1-326): T9 sequence (Q60612 1-326)
Particulars: values from Melman et al.; read-out: Affinity (Ki, nM) mA1; cited from earlier work.

Another assay addresses T13, mA2AAR (Mus musculus, UniProt Q60613).
T13 construct: expressed in transfected cells
Particulars: values from Melman et al.; read-out: Affinity (Ki, nM) mA2A; cited from earlier work.

Another assay concerns the target T14, mA3AR (Mus musculus, UniProt Q61618).
T14 construct: expressed in transfected cells
T14 sequence (Q61618 1-319): T11 sequence (Q61618 1-319)
The settings on record: values from Melman et al.; read-out: Affinity (Ki, nM) mA3; cited from earlier work.

The target in a further assay is rat A2A AR (Rattus norvegicus, UniProt P30543). Particulars: species R (rat); data from Lee et al.; cited from earlier work.
rat A2A AR, sequence (P30543 whole entry): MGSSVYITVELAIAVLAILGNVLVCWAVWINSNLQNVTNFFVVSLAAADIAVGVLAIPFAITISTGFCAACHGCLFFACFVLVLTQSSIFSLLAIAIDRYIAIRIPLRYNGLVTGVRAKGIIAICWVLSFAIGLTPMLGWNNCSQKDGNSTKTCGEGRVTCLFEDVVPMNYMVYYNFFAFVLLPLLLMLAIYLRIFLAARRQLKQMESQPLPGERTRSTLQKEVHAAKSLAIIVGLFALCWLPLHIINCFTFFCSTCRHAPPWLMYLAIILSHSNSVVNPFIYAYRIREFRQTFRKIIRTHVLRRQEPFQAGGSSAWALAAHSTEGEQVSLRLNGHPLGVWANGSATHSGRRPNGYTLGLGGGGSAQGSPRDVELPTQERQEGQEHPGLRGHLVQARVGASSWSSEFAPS
Another assay has as its target T15, rat A1 AR (Rattus norvegicus, UniProt P25099).
T15 sequence (P25099 1-326): T9 sequence (Q60612 1-326) with E151V, A155D, I157R, E316D, I319L, D325E
The settings on record: species R (rat); data from Lee et al.; cited from earlier work.

In assay [12] the target is T10, rat A3 AR. The settings on record: species R (rat); data from Tchilibon et al. / Lee et al.; cited from earlier work.
For assay [13], the target named is T7, human A3 adenosine receptor. Set-up: expressed in transfected cells; host or cells: CHO. Particulars: species H (human); data from Tchilibon et al. or Kim et al.; cited from earlier work.
The target in a further assay is T16, human A2A receptors (Homo sapiens, UniProt P29274).
T16 construct: expressed in transfected cells
T16 sequence (P29274 whole entry): as the sequence (P29274 whole entry) above
Briefly: Binding at human A2A receptor, HEK-293 membranes (Example 4). The settings on record: read-out: Affinity (Ki nM) A2A.

A further assay addresses T17, human A3 receptor (Homo sapiens, UniProt P0DMS8).
T17 sequence (P0DMS8 1-318): T2 sequence (P0DMS8 1-318)
Briefly: Binding assay at the human A3 receptor, CHO membranes (Example 4).

Changes are numbered by the printed parent chain. Like-named read-outs stand apart in the source and are kept apart here. Marks after values point to notes of the source that are not given here.

mouse A2A adenosine receptor, sequence (Q60613 whole entry): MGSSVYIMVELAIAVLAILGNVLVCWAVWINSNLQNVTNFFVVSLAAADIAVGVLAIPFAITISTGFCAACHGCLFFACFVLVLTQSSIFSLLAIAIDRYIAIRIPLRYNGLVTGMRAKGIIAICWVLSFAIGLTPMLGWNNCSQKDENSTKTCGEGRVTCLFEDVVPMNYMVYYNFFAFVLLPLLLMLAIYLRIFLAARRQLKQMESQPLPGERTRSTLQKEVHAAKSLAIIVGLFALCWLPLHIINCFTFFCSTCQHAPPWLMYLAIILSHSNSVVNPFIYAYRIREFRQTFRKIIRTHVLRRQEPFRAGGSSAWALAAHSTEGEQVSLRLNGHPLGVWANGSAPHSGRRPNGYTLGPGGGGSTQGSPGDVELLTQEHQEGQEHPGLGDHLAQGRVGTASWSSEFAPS
T5 sequence (P29274 whole entry): as the sequence (P29274 whole entry) above
T13 sequence (Q60613 whole entry): as the sequence (Q60613 whole entry) above
From the text for human A1 receptors: (§1) The reaction was terminated by filtration with GF/B filters.
From the text for human A2A receptors: as §1
Method for human A3 receptor: Cell culture and membrane preparation: CHO (Chinese hamster ovary) cells expressing the recombinant human A3AR were cultured in DMEM (Dulbecco's modified Eagle's medium) supplemented with 10% fetal bovine serum, 100 units/mL penicillin, 100 μg/mL streptomycin, 2 μmol/mL glutamine and 800 μg/mL geneticin. The CHO cells expressing rat A3ARs were cultured in DMEM and F12 (1:1). Cells were harvested by trypsinization. After homogenization and suspension, cell membranes were centrifuged at 500 g for 10 min, and the pellet was re-suspended in 50 mM Tris.HCl buffer (pH 8.0) containing 10 mM MgCl2, 1 mM EDTA and 0.1 mg/mL CHAPS (3[(3-cholamidopropyl)dimethylammonio]-propanesulfonic acid). […] The protein concentration was measured using the Bradford assay.
The mixtures were incubated at 37° C. for 60 min. Binding reactions were terminated by filtration through Whatman GF/B filters under reduced pressure using a MT-24 cell harvester (Brandell, Gaithersburgh, Md., USA). Filters were washed three times with 9 mL ice-cold buffer. Radioactivity was determined in a Beckman 5500B γ-counter.

In general, Ki refers to a measure of affinity in units of concentration, obtained from inhibition or displacement. As to `COc1ccc(OC)c(CNc2nc(Cl)nc3c2ncn3C2C(O)C(O)C3CC32)c1` (stereo not drawn) [Compound 111b, (1′R,2′R,3′S, 4′R,5′S)-4′-[2-Chloro-6-(2,5-dimethoxybenzylamino)purine]-2′,3′-O-dihydroxybicyclo-[3.1.0]hexane], on human A1 receptors, the Ki amounted to 3000 nM.

Regarding `CNC(=O)[C@@]12C[C@@H]1[C@@H](n1cnc3c(NCc4cccc(I)c4)ncnc31)[C@H](O)[C@@H]2O` [Compound 31], on hA3AR [1], the “% Efficacy hA3” value is 100%. Moreover, the inhibitory constant (Ki) is 6200 ± 100 nM on hA2AAR; 700 ± 270 nM on hA1AR; 2.4 ± 0.5 nM on hA3AR [2]; 6200 ± 100 nM in assay [3]; 2.4 ± 0.5 nM in assay [4] (read-out: A3 Ki, species H (human)); 700 ± 270 nM in assay [5]. For the same compound, the “% Efficacy at the human A3 AR” value on human A3AR is reported as 100^j %. Also, the “Selectivity A1/A3” value in [4] (human) is given as “up to 1900”.

For the compound `CNC(=O)[C@@]12C[C@@H]1[C@@H](n1cnc3c(NCc4cccc(Br)c4)nc(Cl)nc31)[C@H](O)[C@@H]2O` [Compound 14], the inhibition constant (Ki) was 8.79 ± 0.12 nM in assay [6]; 6390 ± 870 nM in assay [7]; 1300 nM in assay [8]; 0.76 nM at rat A3 AR [9]; 0.9 ± 0.22 nM in assay [10]; 270 nM in [11]. Further, the “Selectivity A1/A3” value in assay [10] is on record as 9.8.

Take `CNC(=O)[C@@]12C[C@@H]1[C@@H](n1cnc3c(NCc4cccc(I)c4)nc(Cl)nc31)[C@H](O)[C@@H]2O` [Compound 15]: the “% Efficacy hA3” value on hA3AR [1] is 100%. For the same compound, the Ki was 7.32 ± 1.5 nM in assay [6]; 784 ± 97 nM on hA2AAR; 136 ± 22 nM on hA1AR; 5350 ± 860 nM in [7]; 1.1 nM on rat A3 AR [9]; 784 ± 97 nM in assay [3]. Further, the inhibition constant Ki in assay [10] is 0.8 ± 0.14 nM; at mA1AR, 7.32 ± 1.5 nM; at mA2AAR it was 5350 nM; in [5], 136 ± 22 nM; on mA3AR it was 0.8 ± 0.14 nM; at rat A2A AR, 1660 nM. Further, the inhibition constant Ki on rat A1 AR is 83.9 nM.

In the case of `CNC(=O)[C@@]12C[C@@H]1[C@@H](n1cnc3c(NCc4cc(OC)ccc4OC)nc(Cl)nc31)[C@H](O)[C@@H]2O` [Compound 17], the Ki on rat A3 AR [12] was 0.87 nM; in [6], 29 ± 3.3 nM; in assay [7] it was 44700 ± 5700 nM; in assay [8], 10000 nM; in [13] it was 1.4 nM; in [10], 1.72 ± 0.04 nM. Moreover, in assay [11], the Ki was 1600 nM. Moreover, the “Selectivity A1/A3” value in [10] was 17.

As to `OC1C(O)C(n2cnc3c(NCc4cccc(Br)c4)nc(Cl)nc32)C2CC12` (stereo not drawn) [Compound 109b, (1′R,2′R,3′S, 4′R,5′S)-4′42-Chloro-6-(3-bromobenzylamino)purine-1-2′,3′-O-dihydroxybicyclo-[3.1.0]hexane], at human A2A receptors, the inhibition constant (Ki) stood at 1600 nM.

As for `OC1C(O)C(n2cnc3c(NC4CC4c4ccccc4)nc(Cl)nc32)C2CC12` (stereo not drawn) [Compound 113b, (1′R,2′R,3′S, 4′R,5′S)-4′-[2-Chloro-6-(trans-2-phenylcyclopropylamino)purine]-2′,3′-O-dihydroxybicyclo-[3.1.0]hexane], the Ki worked out at 1790 nM at human A1 receptors and 2010 nM at human A2A receptors. Besides, the “binding to the A3AR (in words)” value at human A3 receptor is listed as “nanomolar binding affinity”.

The values above are taken from US8916570B2 (The United States of America, as represented by the …, priority 2008, dated 2014).
